From PMC7926793, “Synthesis and Biological Evaluation of 1-(Diarylmethyl)-1H-1,2,4-triazoles and 1-(Diarylmethyl)-1H-imidazoles as a Novel Class of Anti-Mitotic Agent for Activity in Breast Cancer” (Pharmaceuticals, 2021)

Experiments:
[1] = system: tubulin (microtubule network) in MCF-7 cells; assay: immunofluorescence confocal microscopy of microtubule network; assay type: cell-based, human; details: 10 μM, 16 h
Procedure: Confocal microscopy was used to study the effects of drug treatment on MCF-7 cytoskeleton. For immunofluorescence, MCF-7 cells were seeded at 1 × 10^5 cells/mL on eight chamber glass slides (BD Biosciences). […] Following treatment, cells were gently washed in PBS, fixed for 20 min with 4% paraformaldehyde in PBS, and permeabilised in 0.5% Triton X-100. Following washes in PBS containing 0.1% Tween (PBST), cells were blocked in 5% bovine serum albumin diluted in PBST. […] Following washes in PBST, the cells were mounted in Ultra Cruz Mounting Media (Santa Cruz Biotechnology, Santa Cruz, CA) containing 4,6-diamino-2-phenolindol dihydrochloride (DAPI). Images were captured by Leica SP8 confocal microscopy with Leica application suite X software. All images in each experiment were collected on the same day using identical parameters. Experiments were performed on three independent occasions.

[2] = system: MCF-7 cells; assay: Annexin V/PI apoptotic assay; assay type: cell-based, human; details: 48 h
Procedure: (§1) Apoptotic cell death was detected by flow cytometry using Annexin V and propidium iodide (PI). MCF-7 and MDA-MB-231 cells were seeded in 6-well plates at a density of 1 × 10^5 cells/mL (3 mL) and treated with either vehicle (0.1% (v/v) EtOH), Phenstatin (7a), or 21l at different concentrations for the selected time. Then, cells were harvested and prepared for flow cytometric analysis. […] Then, cells were washed once in binding buffer and then re-suspended in PI-containing binding buffer (1:1000). […] Four populations are produced during the assay: Annexin V and PI negative (Q4, healthy cells), Annexin V positive and PI negative (Q3, early apoptosis), Annexin V and PI positive (Q2, late apoptosis), and Annexin V negative and PI positive (Q1, necrosis).

[3] = system: MDA-MB-231 cells; assay: Annexin V/PI apoptotic assay; assay type: cell-based, human; details: 48 h
Procedure: as §1

[4] = system: purified bovine brain tubulin; assay: tubulin polymerisation assay; assay type: biochemical; details: 10 μM
Procedure: The assembly of purified bovine tubulin was monitored using a kit, BK006, purchased from Cytoskeleton Inc. (Denver, CO, USA). […] Light is scattered proportionally to the concentration of polymerised microtubules in the assay. Therefore, tubulin assembly was monitored turbidimetrically at 340 nm in a Spectramax 340 PC spectrophotometer (Molecular Devices, Sunnyvale, CA, USA). The absorbance was measured at 30 s intervals for 60 min.

SMILES	effect on microtubule network of MCF-7 cells [1]	viability at 0.1 µM ([2]; Homo sapiens, MCF7, MCF-7, 0.1 μM, Figure 9A, read-out: Viable)	viability at 0.5 µM ([2]; Homo sapiens, MCF7, MCF-7, 0.5 μM, Figure 9A, read-out: Viable)	viability at 1 µM ([2]; Homo sapiens, MCF7, MCF-7, 1 μM, Figure 9A)	Annexin V-stained positive cells (total apoptotic cells) ([2]; MCF-7, 0.1 μM)	Annexin V-stained positive cells (total apoptotic cells) ([2]; MCF-7, 0.5 μM)	Annexin V-stained positive cells (total apoptotic cells) ([2]; MCF-7, 1 μM)	viability at 0.1 µM ([3]; Homo sapiens, MDA-MB-231, 0.1 μM, Figure 9B, read-out: Viable)	viability at 0.5 µM ([3]; Homo sapiens, MDA-MB-231, 0.5 μM, Figure 9B, read-out: Viable)	viability at 1 µM ([3]; Homo sapiens, MDA-MB-231, 1 μM, Figure 9B)	total apoptotic cells ([3]; MDA-MB-231, 0.1 μM)	total apoptotic cells ([3]; MDA-MB-231, 0.5 μM)	total apoptotic cells ([3]; MDA-MB-231, 1.0 μM)	effect on tubulin polymerisation and assembly [4]	fold reduction of the polymer mass compared to the vehicle [4]	Vmax value of tubulin polymerisation ([4]; 60 min)
COc1ccc(C(c2cc(OC)c(OC)c(OC)c2)n2cncn2)cc1O (centres unmarked) [19e, 5-((1H-1,2,4-Triazol-1-yl)(3,4,5-Trimethoxyphenyl)methyl)-2-Methoxyphenol]	disorganised microtubule networks															
COc1ccc(C(c2cc(OC)c(OC)c(OC)c2)n2ccnc2)cc1O (centres unmarked) [21l, 5-((1H-Imidazol-1-yl)(3,4,5-Trimethoxyphenyl)Methyl)-2-Methoxyphenol]	disorganised microtubule networks	85.4%	81.9%	79.4%	14.1%	17.5%	19.3%	95.3%	93.1%	91.5%	3.6%	5.9%	6.9%	significant inhibition of tubulin polymerisation	1.34 fold	2.84 ± 0.10 mOD/min
